Reference: ChEMBL document CHEMBL4706547, “Discovery and structure-activity relationship studies of 1-aryl-1H-naphtho[2,3-d][1,2,3]triazole-4,9-dione derivatives as potent dual inhibitors of indoleamine 2,3-dioxygenase 1 (IDO1) and trytophan 2,3-dioxygenase (TDO)” (Eur J Med Chem, 2020)
pIC50: −log10 of the molar value. ≈ marks a conversion by molar mass, not a printed value. Calls of active or inactive are those of the source. The rule behind the calls is not given here.

Key:
[1] = molecular target: T1, Indoleamine 2,3-dioxygenase 1 (Homo sapiens, UniProt P14902)
T1 sequence (P14902 whole entry): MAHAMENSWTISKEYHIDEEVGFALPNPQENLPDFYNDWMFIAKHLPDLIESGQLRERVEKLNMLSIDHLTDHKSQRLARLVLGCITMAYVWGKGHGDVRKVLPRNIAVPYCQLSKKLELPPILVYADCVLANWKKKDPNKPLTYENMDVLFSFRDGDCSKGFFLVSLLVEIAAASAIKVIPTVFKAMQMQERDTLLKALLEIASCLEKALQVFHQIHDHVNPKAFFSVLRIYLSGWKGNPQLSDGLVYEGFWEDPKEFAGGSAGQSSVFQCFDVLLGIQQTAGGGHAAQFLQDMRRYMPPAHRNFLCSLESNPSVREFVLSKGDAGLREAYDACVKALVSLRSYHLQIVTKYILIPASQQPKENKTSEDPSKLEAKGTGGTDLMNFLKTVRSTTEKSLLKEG

[2] = molecular target: T2, Tryptophan 2,3-dioxygenase (Homo sapiens, UniProt P48775); assay: Inhibition of TDO (unknown origin) assessed as reduction in L-kynurenine formation using L-tryptophan as substrate incubated for 30 mins microplate spectrophotometry analysis
T2 sequence (P48775 whole entry): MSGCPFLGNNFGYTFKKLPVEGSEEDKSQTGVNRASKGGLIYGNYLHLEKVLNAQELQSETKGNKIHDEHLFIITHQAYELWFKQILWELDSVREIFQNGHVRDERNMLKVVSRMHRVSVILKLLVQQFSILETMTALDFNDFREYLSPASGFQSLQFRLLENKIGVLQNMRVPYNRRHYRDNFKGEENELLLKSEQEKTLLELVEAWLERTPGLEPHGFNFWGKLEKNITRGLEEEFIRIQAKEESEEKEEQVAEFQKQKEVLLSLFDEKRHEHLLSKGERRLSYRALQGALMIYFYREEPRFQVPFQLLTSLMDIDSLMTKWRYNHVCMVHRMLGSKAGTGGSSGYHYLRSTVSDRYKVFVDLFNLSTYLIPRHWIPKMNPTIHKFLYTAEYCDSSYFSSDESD

[3] = Toxicity in C57BL/6 mouse […] with […] cells assessed as effect on body weight at 30 mg/kg, ip administered for 11 days and measured upto 20 days; type: organism-based; details: in vivo, time <=20 day
[4] = molecular target: T2, Tryptophan 2,3-dioxygenase; assay: Inhibition of TDO in human A 172 cells assessed as reduction in L-kynurenine formation using L-tryptophan as substrate incubated for 24 hrs; type: cell-based
[5] = Redox activity of compound assessed as increase in H2O2 production at > 50 uM incubated for 15 mins by HRP-PR staining based fluorometric analysis relative to control; type: physicochemical; details: 0.25 h
[6] = Toxicity in C57BL/6 mouse […] with […] cells assessed as effect on body weight at 30 mg/kg, ip administered for 11 days and measured upto 20 days; type: organism-based; details: in vivo, time <=20 day
[7] = Solubility of compound; type: physicochemical
[8] = Redox activity of compound assessed as increase in H2O2 production incubated for 15 mins by HRP-PR staining based fluorometric analysis; type: physicochemical; details: 0.25 h
[9] = Antitumor activity against […] cells allografted in C57BL/6 mouse assessed as tumor growth inhibition at 30 mg/kg, ip administered for 11 days and measured upto 20 days relative to control; type: functional; details: Hepa1-6, ip, time day <=20, read-out: TGI
[10] = molecular target: T1, Indoleamine 2,3-dioxygenase 1; assay: Inhibition of IDO1 in IFN-gamma-induced human HeLa cells assessed as reduction in L-kynurenine formation using L-tryptophan as substrate incubated for 24 hrs
[11] = Antitumor activity against […] cells allografted in C57BL/6 mouse assessed as tumor growth inhibition at 30 mg/kg, ip administered for 11 days and measured upto 20 days relative to control; type: functional; details: LL/2, ip, time day <=20, read-out: TGI
[12] = test system: LL2; details: dose 30.0 mg/kg, time day <=20

O=C1c2ccc(F)cc2C(=O)c2c1nnn2-c1ccc(F)c(Cl)c1
pIC50 [1]: 8.00
pIC50 [2]: 8.00

O=C1c2ccccc2C(=O)c2c1nnn2-c1cccc(Cl)c1
pIC50 [1]: 7.40
pIC50 [2]: 7.44

O=C1c2ccccc2C(=O)c2c1nnn2-c1ccc(-c2nnn[nH]2)cc1
pIC50 [1]: 7.22
pIC50 [2]: 7.60

COC(=O)c1ccc(-n2nnc3c2C(=O)c2ccccc2C3=O)cc1
pIC50 [1]: 7.47
pIC50 [2]: 7.24

O=C1c2cc(F)ccc2C(=O)c2c1nnn2-c1ccc(F)c(Cl)c1
Activity [3]: Non-Toxic
pIC50 [1]: 8.30
pIC50 [4]: 7.23
Activity [5]: Not Active
pIC50 [2]: 8.40
Activity [6]: Non-Toxic
solubility [7]: 0.16 µM (≈ 0.0553 µg/mL)
Activity [8]: Not Active
inhibition in vivo at 30 mg/kg [9]: 80%
pIC50 [10]: 7.01
inhibition in vivo at 30 mg/kg [11]: 62.5%

CC(=O)Nc1cccc(-n2nnc3c2C(=O)c2ccccc2C3=O)c1
pIC50 [1]: 7.09
pIC50 [2]: 6.88

O=C1c2ccccc2C(=O)c2c1nnn2-c1ccc(Cl)c(F)c1
pIC50 [1]: 7.70
pIC50 [2]: 7.74

O=C1c2ccccc2C(=O)c2c1nnn2-c1ccc(Cl)nc1
pIC50 [1]: 7.57
pIC50 [2]: 7.60

O=C1c2cc(O)ccc2C(=O)c2c1nnn2-c1ccc(F)c(Cl)c1
pIC50 [1]: 6.84
pIC50 [2]: 6.77

O=C1c2ccccc2C(=O)c2c1nnn2-c1ccc(C(F)(F)F)c(Cl)c1
pIC50 [1]: 7.52
pIC50 [2]: 7.60

O=C1c2ccccc2C(=O)c2c1nnn2-c1ccccc1
pIC50 [1]: 7.00
pIC50 [2]: 7.15

O=C1c2ccccc2C(=O)c2c1nnn2-c1ccc(Cl)c(Cl)c1
pIC50 [1]: 7.64
pIC50 [2]: 7.74

O=C1c2ccccc2C(=O)c2c1nnn2-c1cccc([N+](=O)[O-])c1
pIC50 [1]: 7.54
pIC50 [2]: 7.55

O=C1c2ccccc2C(=O)c2c1nnn2-c1ccc2[nH]ncc2c1
pIC50 [1]: 7.35
pIC50 [2]: 7.38

O=C1c2ccccc2C(=O)c2c1nnn2-c1ccc([N+](=O)[O-])cc1
pIC50 [1]: 7.48
pIC50 [2]: 7.32

N#Cc1ccc(-n2nnc3c2C(=O)c2ccccc2C3=O)cc1
pIC50 [1]: 7.59
pIC50 [2]: 7.18

O=C1c2ccccc2C(=O)c2c1nnn2-c1cccnc1
pIC50 [1]: 7.64
pIC50 [2]: 7.68

NS(=O)(=O)NCCNc1nonc1C(=NO)Nc1ccc(F)c(Br)c1 [EPACADOSTAT]
pIC50 [2]: < 5.00

O=C1c2ccccc2C(=O)c2c1nnn2-c1ccc2ccncc2c1
pIC50 [1]: 7.40
pIC50 [2]: 7.47

O=C1c2ccccc2C(=O)c2c1nnn2-c1ccccc1Cl
pIC50 [1]: < 5.00
pIC50 [2]: < 5.00

NS(=O)(=O)NCCNc1nonc1/C(=N/O)Nc1ccc(F)c(Br)c1 [EPACADOSTAT]
TGI [12]: Active
inhibition in vivo at 30 mg/kg [9]: 50%

COc1ccc2c(c1)C(=O)c1nnn(-c3ccc(F)c(Cl)c3)c1C2=O
pIC50 [1]: 6.79
pIC50 [2]: 6.98

CN1CCN(C(=O)c2cccc(Cn3nnc4c3C(=O)c3ccccc3C4=O)c2)CC1
pIC50 [1]: 6.18

O=C1c2ccccc2C(=O)c2c1nnn2-c1ccc(Cl)cc1
pIC50 [1]: 7.64
pIC50 [2]: 7.82

COc1ccc2c(c1)C(=O)c1c(nnn1-c1ccc(F)c(Cl)c1)C2=O
pIC50 [1]: < 5.00
pIC50 [2]: < 5.00

O=C1c2ccccc2C(=O)c2c1nnn2-c1cccc(F)c1
pIC50 [1]: 7.28
pIC50 [2]: 7.00

O=C1c2ccccc2C(=O)c2c1nnn2-c1ccc(F)cc1
pIC50 [1]: 7.24
pIC50 [2]: 7.31

O=C1c2ccccc2C(=O)c2c1nnn2-c1ccc2[nH]cnc2c1
pIC50 [1]: 7.11
pIC50 [2]: 6.98

O=C1c2ccccc2C(=O)c2c1nnn2-c1cc(Cl)c(F)c(Cl)c1
pIC50 [1]: 7.48
pIC50 [2]: 7.47

O=C(O)c1cccc(-n2nnc3c2C(=O)c2ccccc2C3=O)c1
pIC50 [1]: 6.94
pIC50 [2]: 7.15

NS(=O)(=O)c1ccc(-n2nnc3c2C(=O)c2ccccc2C3=O)cc1
pIC50 [1]: 7.52
pIC50 [2]: 7.32

CN1CCN(c2ccc(-n3nnc4c3C(=O)c3ccccc3C4=O)cc2)CC1
pIC50 [1]: < 5.00
pIC50 [2]: < 5.00

O=C1c2ccc(O)cc2C(=O)c2c1nnn2-c1ccc(F)c(Cl)c1
pIC50 [1]: 6.45
pIC50 [2]: 6.42

Cc1cccc(-n2nnc3c2C(=O)c2ccccc2C3=O)c1
pIC50 [1]: 6.91
pIC50 [2]: 7.19

O=C1c2ccccc2C(=O)c2c1nnn2-c1ccc(Cl)c([N+](=O)[O-])c1
pIC50 [1]: 7.82
pIC50 [2]: 7.82

O=C1c2ccccc2C(=O)c2c1nnn2-c1ccc(F)c(Cl)c1
pIC50 [1]: 7.89
pIC50 [2]: 7.85

O=C1c2ccccc2C(=O)c2c1nnn2-c1cnc(Cl)c(Cl)c1
pIC50 [1]: 6.95
pIC50 [2]: 6.61

O=C1c2ccccc2C(=O)c2c1nnn2Cc1ccccc1
pIC50 [1]: 6.05
pIC50 [2]: 6.07
